We go through nine compounds from article PMC12915296 (Journal of medicinal chemistry, 2025).

The target in experiment [1] is T1, hCB2 receptor (Homo sapiens, UniProt P34972). Kind of experiment: Inhibition of forskolin-stimulated cAMP accumulation, 3xHA-hCB2-CHO cells. The conditions noted are these: for Emax: read-out: hCB2 receptor cAMP Emax. In kind it is cell-based. On the technique in general: Cyclic AMP is a second messenger, typically raised through Gs and lowered through Gi signalling.
T1 sequence (P34972 whole entry): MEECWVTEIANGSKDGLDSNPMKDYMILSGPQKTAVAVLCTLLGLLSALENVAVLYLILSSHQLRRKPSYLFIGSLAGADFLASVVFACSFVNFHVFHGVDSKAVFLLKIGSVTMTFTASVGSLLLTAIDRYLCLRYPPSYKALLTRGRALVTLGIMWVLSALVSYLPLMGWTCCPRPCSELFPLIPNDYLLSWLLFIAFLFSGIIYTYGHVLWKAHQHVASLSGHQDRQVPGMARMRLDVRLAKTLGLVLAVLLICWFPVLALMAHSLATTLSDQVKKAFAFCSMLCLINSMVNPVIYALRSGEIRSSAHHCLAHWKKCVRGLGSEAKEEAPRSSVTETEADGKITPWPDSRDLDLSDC

Experiment [2] has as its target T1, hCB2 receptor. Description: β-arrestin 2 recruitment assay. The class given is cell-based. The conditions noted are these: for Emax: read-out: hCB2 receptor β-Arrestin 2 Emax.
For experiment [3], the system named is Adult male CD1 mice. Kind of experiment: Ring test for catalepsy. In kind it is in vivo. The note with it: for immobility time in the ring test vs vehicle: i.p., mice, overall.
The subject of experiment [4] is Adult male CD1 mice. Description: Measurement of rectal temperature. The note with it: for body temperature vs vehicle: i.p., mice. In kind it is in vivo.
The subject of experiment [5] is Adult male CD1 mice. Kind of experiment: Tail-flick. The class given is in vivo. The note with it: for tail-flick latency in the tail-immersion test vs vehicle: mice, overall. Background: Hot-plate and tail-flick tests time the reaction to a heat stimulus.
Experiment [6] concerns Adult male CD1 mice. Description: CFA-induced inflammatory pain model, mechanical paw withdrawal thresholds. In kind it is in vivo. The note with it: AM251 5 mg/kg i.p. alone, overall.
The target of experiment [7] is T2, hCB1 receptor (Homo sapiens, UniProt P21554). Description: cell-based. The note with it: for Emax: read-out: hCB1 receptor cAMP Emax, normalized to maximum CP-55,940 = 100.
T2 sequence (P21554 whole entry): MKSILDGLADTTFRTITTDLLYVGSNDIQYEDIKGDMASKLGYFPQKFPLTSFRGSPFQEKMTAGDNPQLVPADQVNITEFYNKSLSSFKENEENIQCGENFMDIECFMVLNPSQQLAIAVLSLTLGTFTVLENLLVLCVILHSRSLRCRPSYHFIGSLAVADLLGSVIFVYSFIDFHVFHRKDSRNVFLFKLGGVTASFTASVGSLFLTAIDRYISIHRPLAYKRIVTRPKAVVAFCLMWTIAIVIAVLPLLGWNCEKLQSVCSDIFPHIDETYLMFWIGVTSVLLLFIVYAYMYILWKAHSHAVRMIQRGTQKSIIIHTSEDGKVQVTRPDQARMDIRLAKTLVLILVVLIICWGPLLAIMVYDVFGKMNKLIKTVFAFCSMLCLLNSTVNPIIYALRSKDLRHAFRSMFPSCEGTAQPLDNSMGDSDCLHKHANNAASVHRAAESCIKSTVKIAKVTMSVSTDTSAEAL
Experiment [8] has as its target T2, hCB1 receptor. Description: cell-based. The note with it: read-out: hCB1 receptor β-Arrestin 2 Emax.
For another experiment, the target named is rCB1 receptor (Rattus norvegicus, UniProt P20272). Kind of experiment: rCB1 radioligand binding assay, [3H]CP-55,940 competition. The note with it: for increase in binding affinity for CB1 compared to lead AMG315: ratio of Ki values.
Chain of rCB1 receptor (P20272 whole entry): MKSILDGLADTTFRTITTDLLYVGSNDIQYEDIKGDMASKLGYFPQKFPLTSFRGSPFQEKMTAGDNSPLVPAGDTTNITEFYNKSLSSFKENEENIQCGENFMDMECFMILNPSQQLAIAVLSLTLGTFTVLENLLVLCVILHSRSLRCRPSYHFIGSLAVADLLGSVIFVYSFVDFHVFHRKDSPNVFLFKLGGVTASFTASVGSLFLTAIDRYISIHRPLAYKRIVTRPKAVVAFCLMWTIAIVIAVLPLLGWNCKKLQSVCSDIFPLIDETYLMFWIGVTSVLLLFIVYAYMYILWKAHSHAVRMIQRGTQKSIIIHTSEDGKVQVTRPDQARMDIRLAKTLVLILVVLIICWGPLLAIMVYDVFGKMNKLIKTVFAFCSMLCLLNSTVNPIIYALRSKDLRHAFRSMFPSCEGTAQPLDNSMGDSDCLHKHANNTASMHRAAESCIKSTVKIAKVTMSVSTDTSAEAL
Experiment [9] addresses T1, hCB2 receptor. Kind of experiment: hCB2 radioligand binding assay, [3H]CP-55,940 competition, HEK293 membranes. The conditions noted are these: for higher affinity for CB2 than the lead compound AMG315: ratio of Ki values.

Read-outs that look alike come from different tables or passages of the source.

The term Emax denotes the size of the effect at its maximum, as opposed to the concentration needed. Usually Ki stands for the dissociation constant of the complex between target and ligand, obtained from inhibition or displacement. For orientation: EC50 means the concentration giving half of the maximal effect. The low end stands for higher potency in that assay, the high end for lower potency in that assay.

As to `CCCCC/C=C\C/C=C\C/C=C\C/C=C\CCCC(=O)NCCO` [AEA, N-arachidonoylethanolamide, reference compound], the Emax is 27% at hCB2 receptor [1] and 36% at hCB2 receptor [2].

With `Cc1c(C(=O)NN2CCCCC2)nn(-c2ccc(Cl)cc2Cl)c1-c1ccc(I)cc1` [AM251, 1-(2,4-dichlorophenyl)-5-(4-iodophenyl)-4-methyl-N-1-piperidinyl-1H-pyrazole-3-carboxamide, reference compound], the “effect of pretreatment on AM12814-induced catalepsy in the ring test” value in the experiment on Adult male CD1 mice [3] (AM251 5 mg/kg ip before AM12814 1 mg/kg ip) is given as “blocked”. Also, in the experiment on Adult male CD1 mice [4] (AM251 5 mg/kg i.p. before AM12814 1 mg/kg i.p.), the “effect of pretreatment on hypothermic effect of AM12814” value was “abolished”. Also, the “effect of pretreatment on tail-flick antinociception of AM12814” value in the experiment on Adult male CD1 mice [5] (AM251 5 mg/kg i.p. before AM12814 3 mg/kg i.p.) is “reduced the overall antinociceptive efficacy”. The “ipsilateral paw withdrawal thresholds, AM251-Veh vs Veh–Veh” value in the experiment with Adult male CD1 mice [6] was “modestly elevated”.

For `CCCCC/C=C\[C@H](C)/C=C\C/C=C\C/C=C\CCCC(=O)N[C@H](C)CO` [AMG315, (R)-N-(1-Methyl-2-hydroxyethyl)-13-(S)-methyl-arachidonamide, reference compound], the Emax at hCB1 receptor [7] worked out at 80.5%; at hCB1 receptor [8], 38%; at hCB2 receptor [1], 18%; on hCB2 receptor [2], 36%.

Regarding `C[C@H](/C=C\C/C=C\C/C=C\CCCC(=O)N[C@H](C)CO)/C=C\CCCCC(F)(F)F` [Compound 12, (S,5Z,8Z,11Z,14Z)-20,20,20-Trifluoro-N-((R)-1-hydroxypropan-2-yl)-13-methylicosa-5,8,11,14-tetraenamide], the figures for the Ki on rCB1 receptor and at hCB2 receptor [9] were 0.7 nM and 3.4 nM, respectively. Also, on rCB1 receptor, the “increase in binding affinity for CB1 compared to lead AMG315” value (“increase in binding affinity for CB1” below) amounted to 10 fold. The “higher affinity for CB2 than the lead compound AMG315” value at hCB2 receptor [9] is given as 52–80 fold. In addition, the “efficacy for the cyclase pathway relative to β-arrestin 2 recruitment in CB1” value at hCB1 receptor [7] (Emax cAMP vs Emax β-arrestin 2) was found to be 3 fold. The “hCB1 receptor cAMP Emax” value at hCB1 receptor [7] (normalized to maximum CP-55,940 = 100) is listed as 67.5%. In addition, the Emax at hCB1 receptor [7] worked out at 67%; on hCB1 receptor [8], 22%; on hCB2 receptor [1] it was 29%; on hCB2 receptor [2], 28%. Moreover, the figures for the EC50 on hCB2 receptor [1] and on hCB2 receptor [2] were 22 nM and 5.6 nM, respectively. For the same compound, the entries for the “immobility time in the ring test vs vehicle” value in the experiment on Adult male CD1 mice [3] (0.3 mg/kg), with Adult male CD1 mice [3] (1 mg/kg) and in the experiment on Adult male CD1 mice [3] (3 mg/kg) were “did not differ reliably from vehicle overall”, “increased immobility time” and “increased immobility time”, respectively. Moreover, the “body temperature vs vehicle” value in the experiment with Adult male CD1 mice [4] (0.3 mg/kg) is “did not alter body temperature at any postinjection time point”; in the experiment on Adult male CD1 mice [4] (1 mg/kg), “reducing body temperature”; with Adult male CD1 mice [4] (3 mg/kg) it was “reducing body temperature”. In the experiment with Adult male CD1 mice [4] (1 or 3 mg/kg), the “earliest time of reduced body temperature postinjection” value was found to be 10 min. The “tail-flick latency in the tail-immersion test vs vehicle” value is “increased tail-flick latency” with Adult male CD1 mice [5] (1 mg/kg, i.p.); “increased tail-flick latency” with Adult male CD1 mice [5] (3 mg/kg, i.p.); “increased tail-flick latency” with Adult male CD1 mice [5] (low dose, 0.1 mg/kg i.p.).

In the case of `C[C@H](/C=C\C/C=C\C/C=C\CCCC(=O)N[C@H](C)CO)/C=C\CCCCCBr` [Compound 15, (S,5Z,8Z,11Z,14Z)-20-Bromo-N-((R)-1-hydroxypropan-2-yl)-13-methylicosa-5,8,11,14-tetraenamide], the Ki stood at 1.1 nM on rCB1 receptor and 5.3 nM at hCB2 receptor [9]. For the same compound, the “increase in binding affinity for CB1” value on rCB1 receptor is given as 2–7 fold.

With `C[C@H](/C=C\C/C=C\C/C=C\CCCC(=O)N[C@H](C)CO)/C=C\CCCCCC#N` [Compound 16a, (S,5Z,8Z,11Z,14Z)-20-Cyano-N-((R)-1-hydroxypropan-2-yl)-13-methylicosa-5,8,11,14-tetraenamide], at rCB1 receptor, the affinity corresponds to a Ki of 1.4 nM and the “increase in binding affinity for CB1” value was 2–7 fold. Further, on hCB2 receptor [9], affinity was put at a Ki of 2.2 nM and the “higher affinity for CB2 than the lead compound AMG315” value is given as 52–80 fold.

Regarding `C[C@H](/C=C\C/C=C\C/C=C\CCCC(=O)N[C@H](C)CO)/C=C\CCCCCO[N+](=O)[O-]` [Compound 16b, (S,6Z,9Z,12Z,15Z)-20-(((R)-1-Hydroxypropan-2-yl)amino)-8-methyl-20-oxoicosa-6,9,12,15-tetraen-1-yl Nitrate], on rCB1 receptor, the Ki worked out at 1.7 nM and the “increase in binding affinity for CB1” value was 2–7 fold. Moreover, the Ki at hCB2 receptor [9] was determined as 10.9 nM.

On to `C[C@H](/C=C\C/C=C\C/C=C\CCCC(=O)N[C@H](C)CO)/C=C\CCCCCO` [Compound 18, (S,5Z,8Z,11Z,14Z)-20-Hydroxy-N-((R)-1-hydroxypropan-2-yl)-13-methylicosa-5,8,11,14-tetraenamide], for which the Ki on rCB1 receptor (read-out: rCB1 receptor Ki, rat brain membranes, [3H]CP-55,940, (± 95% CI)) was determined as 29 nM.

Take `C[C@H](/C=C\C/C=C\C/C=C\CCCC(=O)N[C@H](C)CO)/C=C\CCCCCF` [Compound 21, (S,5Z,8Z,11Z,14Z)-20-Fluoro-N-((R)-1-hydroxypropan-2-yl)-13-methylicosa-5,8,11,14-tetraenamide]: at rCB1 receptor, the affinity corresponds to a Ki of 4.2 nM and the “increase in binding affinity for CB1” value is 2–7 fold. Further, at hCB2 receptor [9], the Ki was 22.2 nM.
